Key:
Test in all cases: post-emergence herbicidal activity, greenhouse
Type in all cases: in vivo
Rice = settings: Table III, formulated in anhydrous tetrahydrofuran
Method in brief: (§1)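 Candidate chemical is applied by atomizer at the indicated rates to emerged plants of 2–3 weeks, spray containing about 0.4 wt% emulsifier. Effects are judged as injury against unsprayed control pans, approximately two and four weeks post-application.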

Sugar Beet = settings: Table III, formulated in anhydrous tetrahydrofuran
Method in brief: as §1

Cocklebur = settings: formulated in anhydrous tetrahydrofuran
Method in brief: as §1

Panicum Spp = settings: Table III, formulated in anhydrous tetrahydrofuran
Method in brief: as §1

Large Crabgrass = settings: Table III, formulated in anhydrous tetrahydrofuran
Method in brief: as §1

Wild Buckwheat = settings: Table III, formulated in anhydrous tetrahydrofuran
Method in brief: as §1

Quackgrass = settings: Table II, formulated in anhydrous tetrahydrofuran
Method in brief: (§2)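 After sowing in soil-filled pans and growing under greenhouse conditions, plants at two to three weeks were sprayed post-emergence with the test compound in a formulation containing approximately 0.4% emulsifier by weight. Observations of plant injury, relative to controls, followed at about two and four weeks.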

Soybean = settings: Table III, formulated in anhydrous tetrahydrofuran
Method in brief: as §1

Hemp Sesbania = settings: Table III, formulated in anhydrous tetrahydrofuran
Method in brief: as §1

Velvetleaf = settings: formulated in anhydrous tetrahydrofuran
Method in brief: as §1

Barnyardgrass = settings: formulated in anhydrous tetrahydrofuran
Method in brief: as §1

Downy Brome = settings: formulated in anhydrous tetrahydrofuran
Method in brief: as §1

Morningglory = settings: formulated in anhydrous tetrahydrofuran
Method in brief: as §1

Pennsylvania Smartweed = settings: formulated in anhydrous tetrahydrofuran
Method in brief: as §1

Johnsongrass = settings: Table II, formulated in anhydrous tetrahydrofuran
Method in brief: as §1

Canada Thistle = settings: Table II, formulated in anhydrous tetrahydrofuran
Method in brief: as §1

Common Lambsquarters = settings: formulated in anhydrous tetrahydrofuran
Method in brief: as §1

Yellow Nutsedge = settings: Table II, formulated in anhydrous tetrahydrofuran
Method in brief: as §2

CCCCOC(=O)CNCP(=O)(O)O[Si](C)(C)C(C)(C)C [Ex. 3, Glycine, N-((([(1,1-Dimethylethyl)Dimethylsilyl]oxy)Hydroxyphosphinyl)Methyl)-, Butyl Ester]
1 (25-49% inhibition): Plant Response Index (O) (Rice; 2 WAT, 5.6 kg/h) | Plant Response Index (O) (Rice; 2 WAT, .28 kg/h) | Plant Response Index (O) (Rice; 4 WAT, 1.1 kg/h) | Plant Response Index (M) (Sugar Beet; 2 WAT, 1.1 kg/h) | Plant Response Index (M) (Sugar Beet; 4 WAT, 1.1 kg/h) | Plant Response Index (B) (Cocklebur; Table II, 2 WAT, 5.6 kg/h) | Plant Response Index (B) (Cocklebur; Table II, 2 WAT, 11.2 kg/h) | Plant Response Index (B) (Cocklebur; Table II, 4 WAT, 5.6 kg/h) | Plant Response Index (B) (Cocklebur; Table III, 4 WAT, 1.1 kg/h) | Plant Response Index (B) (Cocklebur; Table III, 4 WAT, .28 kg/h) | Plant Response Index (S) (Panicum Spp; 2 WAT, 1.1 kg/h) | Plant Response Index (S) (Panicum Spp; 2 WAT, .28 kg/h) | Plant Response Index (S) (Panicum Spp; 4 WAT, .28 kg/h) | Plant Response Index (Q) (Wild Buckwheat; 2 WAT, .28 kg/h) | Plant Response Index (H) (Quackgrass; 4 WAT, 5.6 kg/h) | Plant Response Index (L) (Soybean; 2 WAT, .28 kg/h) | Plant Response Index (L) (Soybean; 4 WAT, 1.1 kg/h) | Plant Response Index (R) (Hemp Sesbania; 2 WAT, 1.1 kg/h) | Plant Response Index (R) (Hemp Sesbania; 2 WAT, .28 kg/h) | Plant Response Index (R) (Hemp Sesbania; 4 WAT, 1.1 kg/h) | Plant Response Index (C) (Velvetleaf; Table II, 2 WAT, 11.2 kg/h) | Plant Response Index (C) (Velvetleaf; Table II, 4 WAT, 5.6 kg/h) | Plant Response Index (C) (Velvetleaf; Table III, 2 WAT, .28 kg/h) | Plant Response Index (K) (Barnyardgrass; Table III, 2 WAT, .28 kg/h) | Plant Response Index (K) (Barnyardgrass; Table III, 4 WAT, .28 kg/h) | Plant Response Index (J) (Downy Brome; Table II, 4 WAT, 5.6 kg/h) | Plant Response Index (J) (Downy Brome; Table II, 4 WAT, 11.2 kg/h) | Plant Response Index (J) (Downy Brome; Table III, 2 WAT, 1.1 kg/h) | Plant Response Index (J) (Downy Brome; Table III, 2 WAT, 5.6 kg/h) | Plant Response Index (J) (Downy Brome; Table III, 2 WAT, .28 kg/h) | Plant Response Index (J) (Downy Brome; Table III, 4 WAT, 1.1 kg/h) | Plant Response Index (J) (Downy Brome; Table III, 4 WAT, 5.6 kg/h) | Plant Response Index (D) (Morningglory; Table II, 2 WAT, 5.6 kg/h) | Plant Response Index (D) (Morningglory; Table II, 2 WAT, 11.2 kg/h) | Plant Response Index (D) (Morningglory; Table II, 4 WAT, 5.6 kg/h) | Plant Response Index (D) (Morningglory; Table III, 2 WAT, .28 kg/h) | Plant Response Index (D) (Morningglory; Table III, 4 WAT, .28 kg/h) | Plant Response Index (F) (Pennsylvania Smartweed; Table II, 2 WAT, 5.6 kg/h) | Plant Response Index (F) (Pennsylvania Smartweed; Table II, 4 WAT, 5.6 kg/h) | Plant Response Index (I) (Johnsongrass; 2 WAT, 11.2 kg/h) | Plant Response Index (I) (Johnsongrass; 4 WAT, 5.6 kg/h) | Plant Response Index (A) (Canada Thistle; 2 WAT, 5.6 kg/h) | Plant Response Index (A) (Canada Thistle; 2 WAT, 11.2 kg/h) | Plant Response Index (A) (Canada Thistle; 4 WAT, 5.6 kg/h) | Plant Response Index (G) (Yellow Nutsedge; 2 WAT, 5.6 kg/h) | Plant Response Index (G) (Yellow Nutsedge; 2 WAT, 11.2 kg/h)
0 (0-24% inhibition): Plant Response Index (O) (Rice; 2 WAT, 1.1 kg/h) | Plant Response Index (O) (Rice; 4 WAT, .28 kg/h) | Plant Response Index (M) (Sugar Beet; 2 WAT, .28 kg/h) | Plant Response Index (M) (Sugar Beet; 4 WAT, .28 kg/h) | Plant Response Index (Q) (Wild Buckwheat; 4 WAT, .28 kg/h) | Plant Response Index (H) (Quackgrass; 2 WAT, 5.6 kg/h) | Plant Response Index (L) (Soybean; 4 WAT, .28 kg/h) | Plant Response Index (R) (Hemp Sesbania; 4 WAT, .28 kg/h) | Plant Response Index (C) (Velvetleaf; Table II, 2 WAT, 5.6 kg/h) | Plant Response Index (J) (Downy Brome; Table II, 2 WAT, 5.6 kg/h) | Plant Response Index (J) (Downy Brome; Table II, 2 WAT, 11.2 kg/h) | Plant Response Index (J) (Downy Brome; Table III, 4 WAT, .28 kg/h) | Plant Response Index (I) (Johnsongrass; 2 WAT, 5.6 kg/h)
3 (75-99% inhibition): Plant Response Index (M) (Sugar Beet; 4 WAT, 5.6 kg/h) | Plant Response Index (B) (Cocklebur; Table III, 4 WAT, 5.6 kg/h) | Plant Response Index (S) (Panicum Spp; 2 WAT, 5.6 kg/h) | Plant Response Index (S) (Panicum Spp; 4 WAT, 5.6 kg/h) | Plant Response Index (T) (Large Crabgrass; 2 WAT, 1.1 kg/h) | Plant Response Index (T) (Large Crabgrass; 2 WAT, .28 kg/h) | Plant Response Index (Q) (Wild Buckwheat; 2 WAT, 5.6 kg/h) | Plant Response Index (H) (Quackgrass; 2 WAT, 11.2 kg/h) | Plant Response Index (H) (Quackgrass; 4 WAT, 11.2 kg/h) | Plant Response Index (C) (Velvetleaf; Table III, 2 WAT, 5.6 kg/h) | Plant Response Index (K) (Barnyardgrass; Table II, 4 WAT, 11.2 kg/h) | Plant Response Index (K) (Barnyardgrass; Table III, 4 WAT, 5.6 kg/h) | Plant Response Index (F) (Pennsylvania Smartweed; Table II, 4 WAT, 11.2 kg/h) | Plant Response Index (F) (Pennsylvania Smartweed; Table III, 2 WAT, 5.6 kg/h) | Plant Response Index (F) (Pennsylvania Smartweed; Table III, 4 WAT, 5.6 kg/h) | Plant Response Index (E) (Common Lambsquarters; Table II, 2 WAT, 5.6 kg/h) | Plant Response Index (E) (Common Lambsquarters; Table II, 2 WAT, 11.2 kg/h) | Plant Response Index (E) (Common Lambsquarters; Table III, 2 WAT, 1.1 kg/h) | Plant Response Index (E) (Common Lambsquarters; Table III, 2 WAT, .28 kg/h) | Plant Response Index (E) (Common Lambsquarters; Table III, 4 WAT, 1.1 kg/h)
2 (50-74% inhibition): Plant Response Index (O) (Rice; 4 WAT, 5.6 kg/h) | Plant Response Index (M) (Sugar Beet; 2 WAT, 5.6 kg/h) | Plant Response Index (B) (Cocklebur; Table II, 4 WAT, 11.2 kg/h) | Plant Response Index (B) (Cocklebur; Table III, 2 WAT, 1.1 kg/h) | Plant Response Index (B) (Cocklebur; Table III, 2 WAT, 5.6 kg/h) | Plant Response Index (B) (Cocklebur; Table III, 2 WAT, .28 kg/h) | Plant Response Index (S) (Panicum Spp; 4 WAT, 1.1 kg/h) | Plant Response Index (Q) (Wild Buckwheat; 2 WAT, 1.1 kg/h) | Plant Response Index (Q) (Wild Buckwheat; 4 WAT, 1.1 kg/h) | Plant Response Index (L) (Soybean; 2 WAT, 1.1 kg/h) | Plant Response Index (L) (Soybean; 2 WAT, 5.6 kg/h) | Plant Response Index (L) (Soybean; 4 WAT, 5.6 kg/h) | Plant Response Index (C) (Velvetleaf; Table II, 4 WAT, 11.2 kg/h) | Plant Response Index (C) (Velvetleaf; Table III, 2 WAT, 1.1 kg/h) | Plant Response Index (C) (Velvetleaf; Table III, 4 WAT, 1.1 kg/h) | Plant Response Index (C) (Velvetleaf; Table III, 4 WAT, .28 kg/h) | Plant Response Index (K) (Barnyardgrass; Table II, 2 WAT, 5.6 kg/h) | Plant Response Index (K) (Barnyardgrass; Table II, 2 WAT, 11.2 kg/h) | Plant Response Index (K) (Barnyardgrass; Table II, 4 WAT, 5.6 kg/h) | Plant Response Index (K) (Barnyardgrass; Table III, 2 WAT, 1.1 kg/h) | Plant Response Index (K) (Barnyardgrass; Table III, 2 WAT, 5.6 kg/h) | Plant Response Index (K) (Barnyardgrass; Table III, 4 WAT, 1.1 kg/h) | Plant Response Index (D) (Morningglory; Table II, 4 WAT, 11.2 kg/h) | Plant Response Index (D) (Morningglory; Table III, 2 WAT, 1.1 kg/h) | Plant Response Index (D) (Morningglory; Table III, 2 WAT, 5.6 kg/h) | Plant Response Index (D) (Morningglory; Table III, 4 WAT, 1.1 kg/h) | Plant Response Index (D) (Morningglory; Table III, 4 WAT, 5.6 kg/h) | Plant Response Index (F) (Pennsylvania Smartweed; Table II, 2 WAT, 11.2 kg/h) | Plant Response Index (F) (Pennsylvania Smartweed; Table III, 2 WAT, 1.1 kg/h) | Plant Response Index (F) (Pennsylvania Smartweed; Table III, 2 WAT, .28 kg/h) | Plant Response Index (F) (Pennsylvania Smartweed; Table III, 4 WAT, 1.1 kg/h) | Plant Response Index (F) (Pennsylvania Smartweed; Table III, 4 WAT, .28 kg/h) | Plant Response Index (I) (Johnsongrass; 4 WAT, 11.2 kg/h) | Plant Response Index (A) (Canada Thistle; 4 WAT, 11.2 kg/h) | Plant Response Index (G) (Yellow Nutsedge; 4 WAT, 5.6 kg/h) | Plant Response Index (G) (Yellow Nutsedge; 4 WAT, 11.2 kg/h)
4 (100% inhibition): Plant Response Index (T) (Large Crabgrass; 2 WAT, 5.6 kg/h) | Plant Response Index (T) (Large Crabgrass; 4 WAT, 1.1 kg/h) | Plant Response Index (T) (Large Crabgrass; 4 WAT, 5.6 kg/h) | Plant Response Index (T) (Large Crabgrass; 4 WAT, .28 kg/h) | Plant Response Index (Q) (Wild Buckwheat; 4 WAT, 5.6 kg/h) | Plant Response Index (R) (Hemp Sesbania; 2 WAT, 5.6 kg/h) | Plant Response Index (R) (Hemp Sesbania; 4 WAT, 5.6 kg/h) | Plant Response Index (C) (Velvetleaf; Table III, 4 WAT, 5.6 kg/h) | Plant Response Index (E) (Common Lambsquarters; Table II, 4 WAT, 5.6 kg/h) | Plant Response Index (E) (Common Lambsquarters; Table II, 4 WAT, 11.2 kg/h) | Plant Response Index (E) (Common Lambsquarters; Table III, 2 WAT, 5.6 kg/h) | Plant Response Index (E) (Common Lambsquarters; Table III, 4 WAT, 5.6 kg/h) | Plant Response Index (E) (Common Lambsquarters; Table III, 4 WAT, .28 kg/h)
